These results are taken from patent US7960508B2, “Peptide having cytotoxicity inhibitory activity and method of screening these peptide having cytotoxicity inhibitory activity” (Juridical Foundation The Chemo-Sero-Therapeutic Research …, priority 2001, dated 2011).

Non-standard residues stand in square brackets, D forms with d. Residues, ends and D or L forms follow the SMILES beside them. No end group written: not given here. Sec = N[C@@H](C[SeH])C(=O)O

Data set [1] deals with Dami cells. Briefly: Minimum concentration for cytotoxic effect / effective minimum concentration (Example 2). In kind it is cell-based. Here is the method: Using Dami cells (described in Greenberg S. M. et al., Blood, vol. 72, p. 1968-1977 (1988)) for use in assay system for the cytotoxicity-inhibitory activity, the cells were washed twice with assay medium (50% PBS/SA/0.03% HSA (manufactured by SIGMA) or SA/0.05% BSA free from fatty acid (WAKO)/4 μM long-chain polyvalent fatty acid (e.g. arachidonic acid, linoleic acid or linolenic acid)) and suspended in the same medium at 3×10^4 cells/ml.

The subject of data set [2] is Dami cells. Briefly: Screening of efficacious peptides: cytotoxicity-inhibitory activity (Example 3). In kind it is cell-based. Particulars: for Activity/1 mM Sec: cytotoxicity-inhibitory activity per 1 mM selenocysteine. The protocol: (§1) The cells were washed twice with 50% PBS/SA/0.03% HSA (manufactured by SIGMA) and suspended in the same medium at 3×10^4 cells/ml.
(§2) For assessment, it was examined to what folds of dilution of tested samples the cells could survive in view of the fact that on Day 4 the cells in wells without the activity were put to death whereas the cells in wells with the activity survived.
Cytotoxicity-inhibitory activity was determined for each of the peptides obtained above as described in Reference Example 1 and in accordance with Reference Example 2. As a result, selenocysteine-containing peptides, Peptide 3 through Peptide 16, were confirmed to have the cytotoxicity-inhibitory activity.

For data set [3], the system named is Dami cells. Briefly: Cytotoxicity induced by fatty acid and inhibitory activity thereto (Reference Example 2). Particulars: for fatty acid concentration inducing cytotoxicity: human. The protocol: To 1 ml Dami cells (1×10^6 cells/dish/3 ml), which can be subcultured in serum free medium SFO3 (manufactured by Sanko Jun-yaku K.K.) containing 0.05 μM 2ME and 0.1% BSA, was added 2 ml 1:2:2 mixed medium (SA medium) of RPMI 1640/D-MEM/F-12. The cells were cultured for three days and recovered for assay. The cells were washed twice with SA/0.05% fatty acid free BSA (manufactured by Wako Jun-yaku K.K.) and suspended at 3×10^4 cells/ml in the same medium containing 2 to 16 μM arachidonic acid, linoleic acid or linolenic acid. The cell suspension was added to a 96-well plate in each 198 μl for wells for sample addition or in each 100 μl for wells for serial dilution.
To the wells for sample addition was added each 2 μl of 100 μM assay sample and, after stirring, a serial dilution was made with the wells containing 100 μl cell suspension. The plate was incubated at 37° C. in CO2 incubator for 4 to 5 days.

Data set [4] relates to intracellular GPX (glutathione peroxidase) activity in Dami cells. The data set is described as follows: Increase in intracellular GPX (glutathione peroxidase) activity (Example 5). In kind it is cell-based, human. Here is the method: The resulting cells were suspended in SA/0.01% BSA at 5×10^5 cells/ml. To 1 ml of this cell suspension were added samples at a fixed concentration so as to compare a concentration that was effective for increase in GPX activity in the samples.
The samples included a selenoprotein P fragment, a synthetic peptide, selenocystine, selenomethionine, Ebselen and sodium selenite. The effect was compared among these samples. […] See FIG. 4 in which the axis of abscissas indicates a percent GPX activity induced by various samples with the GPX activity induced by addition of 10 nM selenoprotein P fragment being 100% while culture of Dami cells.

The subject of data set [5] is Dami cells. The data set is described as follows: Assessment system for activity to inhibit cytotoxicity induced by addition of albumin (Reference Example 1). In kind it is cell-based. Here is the method: As one of preferable embodiments, a culture system of Dami cells, human megakaryoblasts, with serum free culture medium supplemented with albumin was used for screening. […] A diluted sample of active fractions was added to this culture system so that the cytotoxicity-inhibitory activity could be assessed.
as §1, §2

Where [6] appears, read: 1 nM, 10 nM selenoprotein P fragment being 100%.

Turning to `O=c1c2ccccc2[se]n1-c1ccccc1` [Ebselen], in the data set on Dami cells [1], the “toxicity upon addition to cell culture” value is recorded as “exhibited a strong toxicity”.
With `CC[C@H](C)[C@H](NC(=O)[C@H](CC(C)C)NC(=O)[C@H](Cc1c[nH]cn1)NC(=O)[C@H](CCCNC(=N)N)NC(=O)[C@H](CO)NC(=O)[C@H](Cc1c[nH]cn1)NC(=O)[C@H](CO)NC(=O)[C@H](CO)NC(=O)[C@H](C[SeH])NC(=O)[C@H](CO)NC(=O)[C@@H](N)CCCNC(=N)N)C(=O)N[C@@H](Cc1ccccc1)C(=O)N[C@@H](CCC(=O)O)C(=O)N[C@@H](CCCCN)C(=O)O` [Peptide 6] (H-RS[Sec]SSHSRHLIFEK-OH), the cytotoxicity-inhibitory activity entry in the data set with Dami cells [2] (result in words) is on record as “could inhibit cytotoxicity most effectively at the lowest concentration”.
As for `CCCCC/C=C\C/C=C\C/C=C\C/C=C\CCCCCC(=O)O` [adrenic acid], the “induction of cytotoxicity by fatty acid” value with Dami cells [3] (10 μM, serum free culture, absence of selenoprotein P) was “induced cytotoxicity”.
Turning to `CCCCC/C=C\C/C=C\C/C=C\C/C=C\CCCC(=O)O` [arachidonic acid], in the data set on Dami cells [3], the “fatty acid concentration inducing cytotoxicity” value is not below 4 µM.
Take `CCCCC/C=C\C/C=C\CCCCCCCC(=O)O` [linoleic acid]: the “fatty acid concentration inducing cytotoxicity” value with Dami cells [3] was not below 4 µM.
For the molecule `N[C@@H](C[Se][Se]C[C@H](N)C(=O)O)C(=O)O` [selenocystine], the “increase in intracellular GPX activity” value in data set [4] (setting [6]) was “around 50%”. For the same molecule, the “toxicity upon addition to cell culture” value in the data set on Dami cells [1] is reported as “fairly strong toxicity”.
In the case of `C[Se]CC[C@H](N)C(=O)O` [selenomethionine], the “increase in intracellular GPX activity” value in data set [4] (10 nM) is recorded as “increase in the activity could scarcely be observed”. Also, the “effective minimum concentration of selenium to inhibit 80% or more of cytotoxicity” value with Dami cells [1] is listed as “around 1 μM”.
Take `O=[Se](O)O` [sodium selenite]: the “increase in intracellular GPX activity” value in data set [4] (setting [6]) is “around 50%”. The “concentration at which toxicity was observed” value in the data set with Dami cells [1] (on the basis of selenium concentration, 4 to 5 days culture) is given as “around 500 nM”.
Consider “Ala Glu Glu Asn Ile Thr Glu Ser Ser Gln Xaa Arg (AEENITESSQ[Sec]R; listed as Human plasma) [Peptide 10]”, for which the “Activity/1 mM Sec” value in the data set with Dami cells [2] is 6,000.
Same read-out and setting: to “Arg Ser Xaa Cys Cys His Cys Arg His Leu Ile Phe Glu Lys (RS[Sec]CCHCRHLIFEK; cysteine pairing not given here; listed as Human plasma) [Peptide 3]” belongs 95,000.
On the same count and under the same terms, to “Arg Ser Xaa Ser (RS[Sec]S; listed as Human plasma) [Peptide 7]” belongs 95,000.
“Arg Ser Xaa Ser Cys His Cys Arg His Leu Ile Phe Glu Lys (RS[Sec]SCHCRHLIFEK; cysteine pairing not given here; listed as Human plasma) [Peptide 4]”: in the data set on Dami cells [2], the “Activity/1 mM Sec” value is on record as 24,000.
Regarding “Arg Ser Xaa Ser Ser His Cys Arg His Leu Ile Phe Glu Lys (RS[Sec]SSHCRHLIFEK; listed as Human plasma) [Peptide 5]”, the “Activity/1 mM Sec” value in the data set on Dami cells [2] is listed as 16,000.
For the molecule “Glu Asn Leu Pro Ser Leu Ser Ser Xaa Gln Gly Leu Arg (ENLPSLSS[Sec]QGLR; listed as Human plasma) [Peptide 9]”, the “Activity/1 mM Sec” value in the data set with Dami cells [2] is 24,000.
With “KRCINQLLCKLPTDSELAPRS (cysteine pairing not given here) [Peptide 1]”, the “Activity/1 mM Sec” value with Dami cells [2] is given as 0.
“Leu Ile Pro Thr Glu Ala Ser Ala Ser Xaa Arg (LIPTEASAS[Sec]R; listed as Human plasma) [Peptide 11]”: in the data set with Dami cells [2], the “Activity/1 mM Sec” value is 28,000.
Same read-out and setting: to “Leu Pro Pro Ala Ala Xaa Gln Ile Ser Gln Gln (LPPAA[Sec]QISQQ; listed as Human plasma) [Peptide 16]” belongs 24,000.
As to “Lys Arg Cys Ile Asn Gln Leu Leu Cys Lys Leu Pro Thr Asp Ser Glu Leu Ala Pro Arg Ser Xaa Cys Cys His Cys Arg His Leu Ile Phe Glu Lys (KRCINQLLCKLPTDSELAPRS[Sec]CCHCRHLIFEK; cysteine pairing not given here; listed as Human plasma) [SEQ ID NO: 3, peptide fragment purified under reduced condition from selenoprotein P fragment]”, the cytotoxicity-inhibitory activity entry with Dami cells [5] (result in words, assay not specified) was “had the cytotoxicity-inhibitory activity”.
Consider “Lys Asn Gln Ala Lys Lys Xaa Glu (KNQAKK[Sec]E; listed as Human plasma) [Peptide 12]”, for which the “Activity/1 mM Sec” value in the data set on Dami cells [2] was 24,000.
Take “Lys Glu Phe Ile Leu His Arg Ser His Ser Ser Xaa Ser Arg (KEFILHRSHSS[Sec]SR; listed as Human plasma) [Peptide 14]”: in the data set with Dami cells [2], the “Activity/1 mM Sec” value was 95,000.
Consider “RSSCCHCRHLIFEK (cysteine pairing not given here) [Peptide 2]”, for which the “Activity/1 mM Sec” value in the data set on Dami cells [2] is given as 0.
Turning to “Thr Gly Ser Ala Ile Thr Xaa Gln Ser Lys (TGSAIT[Sec]QSK; listed as Human plasma) [Peptide 8]”, the “Activity/1 mM Sec” value with Dami cells [2] is given as 79,000.
In the case of “Xaa Pro Ser Asn ([Sec]PSN; listed as Human plasma) [Peptide 13]”, the “Activity/1 mM Sec” value in the data set on Dami cells [2] is given as 24,000.
For vitamin E, the “effective concentration inhibiting cytotoxicity” value with Dami cells [3] (in the presence of 4 μM linoleic acid) is “about 100 nM”.

B1: SEQ ID NO: 2: selenoprotein P fragment with the amino acid sequence from 260th Lys to 362nd Asn, Xaa represents selenocysteine (protein, listed as Human plasma)
chain: KRCINQLLCKLPTDSELAPRS[Sec]CCHCRHLIFEKTGSAIT[Sec]QCKENLPSLCS[Sec]QGLRAEENITESCQ[Sec]RLPPAA[Sec]QISQQLIPTEASAS[Sec]R[Sec]KNQAKK[Sec]E[Sec]PSN
On to B1, for which the cytotoxicity-inhibitory activity entry in the data set with Dami cells [5] is given as “having the cytotoxicity-inhibitory activity”.

B2: full-length selenoprotein P: selenoprotein P as an intact molecule, a protein from blood components (protein, UniProt P49908 1-381, looked up)
chain: MWRSLGLALALCLLPSGGTESQDQSSLCKQPPAWSIRDQDPMLNSNGSVTVVALLQASUYLCILQASKLEDLRVKLKKEGYSNISYIVVNHQGISSRLKYTHLKNKVSEHIPVYQQEENQTDVWTLLNGSKDDFLIYDRCGRLVYHLGLPFSFLTFPYVEEAIKIAYCEKKCGNCSLTTLKDEDFCKRVSLATVDKTVETPSPHYHHEHHHNHGHQHLGSSELSENQQPGAPNAPTHPAPPGLHHHHKHKGQHRQGHPENRDMPASEDLQDLQKKLCRKRCINQLLCKLPTDSELAPRSUCCHCRHLIFEKTGSAITUQCKENLPSLCSUQGLRAEENITESCQURLPPAAUQISQQLIPTEASASURUKNQAKKUEUPSN
modifications: full-length
notes: selenoprotein P as an intact molecule, a protein from blood components
As to B2, in the data set with Dami cells [1], the “toxicity upon addition to cell culture” value is “no strong toxicity”.
